Experimental data reported in patent US20120064056A1, “DICHLORACETATE IN COMBINATION WITH CLINICALLY HIGH LEVELS OF CARDIOPROTECTIVE OR HEMODYNAMIC DRUGS” (THE GOVERNORS OF THE UNIVERSITY OF ALBERTA TEC Edmonton, priority 2002, published 2012).
Where “and” joins values, the source holds several entries; their conditions need not be identical. Equal entries are not always repeated.

Assays:
isolated rat hearts [1] = assay: Isolated working rat heart, aerobic perfusion: glycolysis and glucose oxidation; set-up: glycolytic rates (glycolysis) / glucose oxidation rates: unit not given here; conditions: for glucose oxidation rates / glycolytic rates (glycolysis): normal hearts, aerobic, DCA 2 mM, digoxin 3 nM, diltiazem 0.8 μM, dobutamine 1 μM, metoprolol 1 μM; for glucose oxidation rates: FIG. 1, 3, 5, 7, control 361±43; for glycolytic rates (glycolysis): FIG. 2, 4, 6, 8, control 3.430±0.604
Experimental: (§1) Rat hearts were cannulated for isolated working heart perfusions as described in “An imbalance between glycolysis and glucose oxidation is a possible explanation for the detrimental effects of high levels of fatty acids during aerobic reperfusion of ischemic hearts.”, (J Pharmacol Exp Ther. 264:135 (1993); herein incorporated by reference. In brief, male Sprague-Dawley rats (0.3-0.35 kg) were anesthetized with pentobarbital sodium (60 mg/kg IP) and hearts were quickly excised, the aorta was cannulated and a retrograde perfusion at 37° C. was initiated at a hydrostatic pressure of 60 mm Hg. Hearts were trimmed of excess tissue, and the pulmonary artery and the opening to the left atrium were then cannulated. After 15 min of Langendorff perfusion, hearts were switched to the working mode by clamping the aortic inflow line from the Langendorff reservoir and opening the left atrial inflow line. The perfusate was delivered from an oxygenator into the left atrium at a constant preload pressure of 11 mm Hg. Perfusate was ejected from spontaneously beating hearts into a compliance chamber (containing 1 ml of air) and into the aortic outflow line. The afterload was set at a hydrostatic pressure of 80 mm Hg. All working hearts were perfused with Krebs'-Henseleit solution containing calcium 2.5 mmol/L, glucose 5.5 mmol/L, 3% bovine serum albumin (Fraction V, Boehringer Mannheim), and with 1.2 mmol/L palmitate. Palmitate was bound to the albumin as described previously (Saddik M., et al. J Biol. Chem. 267:3825-3831 (1992)). The perfusate was recirculated, and pH was adjusted to 7.4 by bubbling with a mixture containing 95% O2 and 5% CO2. For the aerobic model hearts, all tested compounds were introduced into the heart 5 minutes into the working mode following Langendorff Perfusion.
Glycolysis and glucose oxidation were measured simultaneously by perfusing hearts with [5-^3H/U-^14C] glucose (Liu H., et al. Am J Physiol. 270:H72-H80 (1996); Taegtmeyer Het al. Am J Cardiol. 80:3A-10A (1997)). The total myocardial ^3H2O production and ^14CO2 production were determined at 10 minute intervals for the entirety of the aerobic period, 60 minutes for normal hearts and 30 minutes for the global ischemia and low flow demand ischemia models. In the global ischemia model, the total myocardial ^3H2O and ^14CO2 production were determined at 20 minute intervals for the 60 minute reperfusion period. In the low flow demand ischemia model, the total myocardial ^3H2O and ^14CO2 production were determined at 10 minute intervals for the 30 minute reperfusion period. Glucose oxidation rates were determined by quantitative measurement of ^14CO2 production as described previously (Barbour R. L., et al. Biochemistr. 1923:6503-6062 (1984)).

isolated rat hearts [2] = assay: Isolated working rat heart, aerobic perfusion: cardiac function and efficiency; set-up: Cardiac Work (CO · PSP): unit not given beside the values; conditions: for Aortic Outflow / Cardiac Efficiency (CW · O2^−1) / Cardiac Output / Cardiac Work (CO · PSP) / Coronary Flow / HR × PSP / Heart Rate / O2 Consumption / Peak Systolic Pressure: aerobically perfused, DCA 2 mM, diltiazem 0.8 μM, digoxin 3 nM, metoprolol 1 μM, dobutamine 1 μM; for effect on functional parameters shown in Table 2 incl. O2 consumption and cardiac efficiency, in words / effect on functional parameters shown in Table 1 (heart rate, peak systolic pressure, HR×PSP), in words: normal hearts, aerobic; for effect on functional parameters shown in Table 2 incl. O2 consumption and cardiac efficiency, in words: compared to control; for effect on functional parameters shown in Table 1 (heart rate, peak systolic pressure, HR×PSP), in words: compared to control (DCA and dobutamine: compared to dobutamine alone)
Experimental: as §1
Spontaneously beating hearts were used in all perfusions. Heart rate and aortic pressure were measured with a Biopac Systems Inc. blood pressure transducer connected to the aortic outflow line. Cardiac output and aortic flow were measured with Transonic T206 ultrasonic flow probes in the preload and afterload lines, respectively. Coronary flow was calculated as the difference between cardiac output and aortic flow. The O2 contents of the perfusate entering and leaving the heart were measured using YSI™ micro oxygen electrodes placed in the preload and pulmonary arterial lines, respectively. Myocardial O2 consumption (MVO2) was calculated according to the Fick principle, using coronary flow rates and the arteriovenous difference in perfusate O2 concentration. Cardiac work was calculated as the product of systolic pressure and cardiac output. Cardiac efficiency was defined as a ratio of cardiac work to MVO2.

[3] = test system: isolated rat hearts subjected to low flow demand ischemia; assay: Isolated working rat heart, low flow demand ischemia: cardiac function and efficiency; conditions: DCA 2 mM, diltiazem 0.8 μM, metoprolol 1 μM
Experimental: (§2) Hearts were trimmed of excess tissue, and the pulmonary artery and the opening to the left atrium were then cannulated. After 15 min of Langendorff perfusion, hearts were switched to the working mode by clamping the aortic inflow line from the Langendorff reservoir and opening the left atrial inflow line. The perfusate was delivered from an oxygenator into the left atrium at a constant preload pressure of 11 mm Hg. […] The afterload was set at a hydrostatic pressure of 80 mm Hg. […] Palmitate was bound to the albumin as described previously ([…]., et al. J Biol. Chem. 267:3825-3831 (1992)). […] For the aerobic model hearts, all tested compounds were introduced into the heart 5 minutes into the working mode following Langendorff Perfusion. Spontaneously beating hearts were used in all perfusions. Heart rate and aortic pressure were measured with a Biopac Systems Inc. blood pressure transducer connected to the aortic outflow line. Cardiac output and aortic flow were measured with Transonic […] ultrasonic flow probes in the preload and afterload lines, respectively. Coronary flow was calculated as the difference between cardiac output and aortic flow. […] Cardiac work was calculated as the product of systolic pressure and cardiac output. Cardiac efficiency was defined as a ratio of cardiac work to MVO2. […] All tested compounds were introduced into the perfusate five minutes into initiation of aerobic perfusion.

[4] = test system: isolated rat hearts subjected to global ischemia; assay: Isolated working rat heart, global no flow ischemia and reperfusion: cardiac function and efficiency; conditions: for Aortic Outflow / Cardiac Output / Coronary Flow / HR × PSP / Heart Rate / Peak Systolic Pressure: post-ischemic reperfusion, DCA 2 mM, digoxin 3 nM, metoprolol 1 μM
Experimental: as §2, with “prior to reperfusion.” for “into initiation of aerobic perfusion.”

[5] = test system: isolated rat hearts subjected to global ischemia; assay: Isolated working rat heart, global ischemia and reperfusion: glycolysis and glucose oxidation; conditions: FIG. 10, FIG. 16, DCA 2 mM, digoxin 3 nM, metoprolol 1 μM
Experimental: Hearts were trimmed of excess tissue, and the pulmonary artery and the opening to the left atrium were then cannulated. After 15 min of Langendorff perfusion, hearts were switched to the working mode by clamping the aortic inflow line from the Langendorff reservoir and opening the left atrial inflow line. The perfusate was delivered from an oxygenator into the left atrium at a constant preload pressure of 11 mm Hg. […] The afterload was set at a hydrostatic pressure of 80 mm Hg. […] Palmitate was bound to the albumin as described previously ([…]., et al. J Biol. Chem. 267:3825-3831 (1992)). […] For the aerobic model hearts, all tested compounds were introduced into the heart 5 minutes into the working mode following Langendorff Perfusion. […] All tested compounds were introduced into the perfusate five minutes prior to reperfusion. […] Am J Physiol. 270:[…]. Am J Cardiol. 80:3A-10A (1997)). […] In the global ischemia model, the total myocardial ^3H2O and ^14CO2 production were determined at 20 minute intervals for the 60 minute reperfusion period. […] L., et al. Biochemistr. 1923:6503-6062 (1984)).

[6] = low flow ischemia: aerobic period
[7] = low flow ischemia: ischemic period

SMILES	glucose oxidation rates (isolated rat hearts [1])	glycolytic rates (glycolysis) (isolated rat hearts [1])	Aortic Outflow (isolated rat hearts [2]) [mL/min]	Cardiac Efficiency (CW · O2^−1) (isolated rat hearts [2])	Cardiac Output (isolated rat hearts [2]) [mL/min]	Cardiac Work (CO · PSP) (isolated rat hearts [2])	Coronary Flow (isolated rat hearts [2]) [mL/min]	HR × PSP (isolated rat hearts [2])	Heart Rate (isolated rat hearts [2]) [beats · min^−1]	O2 Consumption (isolated rat hearts [2])	Peak Systolic Pressure (isolated rat hearts [2]) [mmHg]	effect on functional parameters shown in Table 2 incl. O2 consumption and cardiac efficiency, in words (isolated rat hearts [2])	effect on functional parameters shown in Table 1 (heart rate, peak systolic pressure, HR×PSP), in words (isolated rat hearts [2])	Aortic Outflow [4] [mL/min]	Cardiac Output [4] [mL/min]	Coronary Flow [4] [mL/min]	HR × PSP [4]	Heart Rate [4] [beats · min^−1]	Peak Systolic Pressure [4] [mmHg]	other results
CC(CCc1ccc(O)cc1)NCCc1ccc(O)c(O)c1 (stereo not shown) [Dobutamine, dobutamine]	1707±435	13.365±1.981	32 ± 3	1.56 ± 0.43	52 ± 2	64 ± 5	20 ± 4	40 ± 2 beats · min^−1 · mmHg · 10^−2	333 ± 7	44 ± 9 μmolO2 · g dry wt^−1 · min^−1	124 ± 3	no significant effect	–	–	–	–	–	–	–	increase in glucose metabolism (isolated rat hearts [1]; aerobic model): ~400%; HR × PSP (isolated rat hearts [2]; listed as dobutamine): 40±2 beats · min^−1 · mmHg · 10^−2; Heart Rate (isolated rat hearts [2]; listed as dobutamine): 333±7 beats · min^−1
O=C(O)C(Cl)Cl [DCA, dichloroacetate]	1697±179 and 1526±79	8.917±3.060	30 ± 3	1.69 ± 0.19	49 ± 4	61 ± 5	20 ± 1	32 ± 1 beats · min^−1 · mmHg · 10^−2	239 ± 8	38 ± 5 μmolO2 · g dry wt^−1 · min^−1	125 ± 3	no effect	no significant effect	14 ± 6	35 ± 5	21 ± 1	18 ± 2 beats · min^−1 · mmHg · 10^−2	208 ± 11	87 ± 9	Aortic Outflow [3, 6]: 27 ± 3 mL/min; Cardiac Output [3, 6]: 50 ± 2 mL/min; Coronary Flow [3, 6]: 22 ± 1 mL/min; HR × PSP [3, 6]: 30 ± 1 beats · min^−1 · mmHg · 10^−2; Heart Rate [3, 6]: 214 ± 7 beats · min^−1; Peak Systolic Pressure [3, 6]: 139 ± 3 mmHg; Aortic Outflow [3, 7]: 13 ± 5 mL/min; Cardiac Output [3, 7]: 26 ± 5 mL/min; Coronary Flow [3, 7]: 13 ± 1 mL/min; HR × PSP [3, 7]: 30 ± 1 beats · min^−1 · mmHg · 10^−2; Heart Rate [3, 7]: 214 ± 7 beats · min^−1; Peak Systolic Pressure [3, 7]: 139 ± 3 mmHg; increase in glucose oxidation (isolated rat hearts [1]; aerobic model): over 400%; increase in glycolysis (isolated rat hearts [1]; aerobic model): over 300%
C[C@H]1O[C@@H](O[C@H]2[C@@H](O)C[C@H](O[C@H]3[C@@H](O)C[C@H](O[C@H]4CC[C@@]5(C)[C@H](CC[C@@H]6[C@@H]5C[C@@H](O)[C@]5(C)[C@@H](C7=CC(=O)OC7)CC[C@]65O)C4)O[C@@H]3C)O[C@@H]2C)C[C@H](O)[C@@H]1O [Digoxin, digoxin]	–	5.651±1.298	31 ± 1	–	52 ± 1	67 ± 3	21 ± 1	32 ± 1 beats · min^−1 · mmHg · 10^−2	258 ± 11	37 ± 3 μmolO2 · g dry wt^−1 · min^−1	129 ± 4	–	no significant effect	14 ± 3	34 ± 3	20 ± 1	19 ± 2 beats · min^−1 · mmHg · 10^−2	207 ± 12	93 ± 6	Aortic Outflow (isolated rat hearts [2]; listed as digoxin): 31 ± 1 mL/min; Cardiac Work (CO · PSP) (isolated rat hearts [2]; listed as digoxin): 67±3; recovery of cardiac function of previously ischemic hearts compared to control, in words ([4]; reperfusion period, FIG. 11, FIG. 17): significantly improves the recovery; recovery of cardiac work of previously ischemic hearts compared to control, in words ([4]; reperfusion period, FIG. 12, FIG. 18): significantly improve the recovery; recovery of oxygen consumption of previously ischemic hearts, in words ([4]; reperfusion period, FIG. 13, FIG. 19): significantly improve the recovery; glycolytic rates as compared to control, in words [5]: neither DCA, digoxin, nor digoxin with DCA altered glycolytic rates
